Assay results: patent publication US7319094B2, “Increased and sustained in vivo gene expression using a nucleic acid, histone and amphipathic compound composition” (Rhode Island Hospital, priority 2001, dated 2008)
Entries after “also recorded” stand apart in the source; their conditions may differ.

Experiments:
Format in all cases: cell-based, human
[1] = test system: PNET2 cells induced to express AD7c-NTP; assay: Crystal violet viability assay; conditions: 3 mM IPTG-induced AD7c-NTP; relative to un-induced FCS-stimulated and IPTG-induced NGF or PDGF stimulated cultures
Method: (§1) To examine the effects of different growth factors on AD7c-NTP expression (and over-expression), the cells were serum-starved for 16 hours, after which IPTG (1-5 mM) was added to the medium. Four hours later, the cells were stimulated with insulin (50 nM), IGF-1 (5 ng/ml), NGF ([…]), or platelet-derived growth factor (PDGF; 5 ng/ml) for 24-72 hours. The cells were analyzed for morphological changes, viability, AD7c-NTP immunoreactivity, and expression of pro-apoptosis genes, survival genes, and phospho-tau.
Viability was measured by a standard crystal violet assay. Crystal violet dye labels only viable cells. The assays were performed with cells seeded into 96-well plates at a density of 2×10^4 cells/well. The absorbances were measured using a Spectracount plate reader (Packard, Meriden, Conn.). The crystal violet absorbances increased linearly with cell density between 10^4 and 5×10^5 cells/well.
Cells were serum-starved for 24 hours. However, since several hours of IPTG stimulation were required to induce AD7c-NTP gene expression or CAT activity, IPTG (3 mM) was added to the cultures after 16 hours of serum-starvation, i.e. 8 hours prior to growth factor stimulation. […]
Increased cell loss associated with insulin-stimulation and AD7c-NTP over-expression Cell viability was quantified using the microculture Crystal violet assay with cells seeded into 96-well plates. […]

[2] = test system: PNET2 cells induced to express AD7c-NTP; assay: Cell morphology by phase contrast microscopy; conditions: IPTG-induced AD7c-NTP; insulin 50 nM, IGF-1 5 ng/ml, NGF 2.5 ng/ml, PDGF 5 ng/ml; 24-48 hours
Method: as §1
Cells were serum-starved for 24 hours. However, since several hours of IPTG stimulation were required to induce AD7c-NTP gene expression or CAT activity, IPTG (3 mM) was added to the cultures after 16 hours of serum-starvation, i.e. 8 hours prior to growth factor stimulation. The cells were stimulated with insulin (50 nM), IGF-1 (5 ng/ml), NGF (2.5 ng/ml), or PDGF (5 ng/ml) and examined by phase contrast microscopy 24-48 hours later. PNET2 cells could be maintained in serum-free medium for 5 to 7 days with insulin, IGF-1, NGF, or PDGF as the only growth stimulus. In addition, each of these growth factors supports DNA synthesis and promotes modest outgrowth of multipolar neurites in PNET2 cells.

p53 = p53 expression, Western blot / MICE assay; conditions: PNET2 cells induced to express AD7c-NTP, growth factor stimulated
Description: (§2) Standard Western blot assays wew used to measure cellular levels of p53, Bcl-2, p21/Waf1, phospho-tau, tau, c-fos, NTP, and activated (phosphorylated) forms of Erk mitogen activated protein (MAP) kinase, amino-terminal c-jun-activated kinase (pJNK), and p38/HOG1. Immunoprecipitation followed by Western blot analysis was used to measure p85 subunit associated with IRS1. For Western blot analysis of p53 Bcl-2, phospho-tau, tau, c-fos, and NTP, the cells were lysed in ice cold radioimmunoprecipitation assay (RIPA) buffer supplemented with protease and phosphatase inhibitors. For the immunoprecipitation studies, Western blot analysis of phospho-Erk, pJNK, and p38, and the PI3 kinase assays, the cells were harvested in Triton lysis buffer supplemented with protease and phosphatase inhibitors. Protein concentrations were measured using the BCA assay (Pierce, Rockford, Ill.). Samples containing 60 μg of protein were fractionated by sodium dodecyl sulfate polyacrylamide gel electrophoresis (SDS-PAGE), then transferred to PVDF membranes, and analyzed by Western immunoblotting. Immunoreactivity was detected with horseradish peroxidase conjugated secondary IgG and PicoWest enhanced chemiluminescence reagents (Pierce Chemical Company, Rockford, Ill.). CAT activity was measured using known methods.
(§3) The MICE assay is known in the art (e.g., as described by de la Monte et al., 1999, Biotechniques 26:107301076). The assay is a rapid and sensitive method for quantifying immunoreactivity in 96-well micro-cultures and combines the advantages of the enzyme-linked immunosorbant assay with immunocytochemical staining to permit sensitive in situ quantification of protein expression with values normalized to cell density. […] Immunoreactivity was detected using horseradish peroxidase conjugated secondary antibody (Pierce, Rockford, Ill.) and the TMB soluble peroxidase substrate (Pierce, Rockford, Ill.). Absorbances were measured at 450 nm using a Spectracount plate reader. […]

Bcl-2 = Bcl-2 expression, Western blot / MICE assay; conditions: PNET2 cells induced to express AD7c-NTP, growth factor stimulated
Description: as §2, §3

p21/Waf1 = p21/Waf1 expression, Western blot / MICE assay; conditions: PNET2 cells induced to express AD7c-NTP, growth factor stimulated
Description: as §2, with “For the immunoprecipitation studies, Western blot analysis of phospho-Erk, pJNK, and p38, and the PI3 kinase assays, the cells were harvested in Triton lysis buffer supplemented with protease and phosphatase inhibitors.” left out
(§4) The MICE assay is known in the art (e.g., as described by de la Monte et al., 1999, Biotechniques 26:107301076). […] Immunoreactivity was detected using horseradish peroxidase conjugated secondary antibody (Pierce, Rockford, Ill.) and the TMB soluble peroxidase substrate (Pierce, Rockford, Ill.). […]

phospho-tau = phospho-tau expression, Western blot / MICE assay; conditions: PNET2 cells induced to express AD7c-NTP; relative to PDGF-stimulated cultures
Description: as §2, with “For the immunoprecipitation studies, Western blot analysis of phospho-Erk, pJNK, and p38, and the PI3 kinase assays, the cells were harvested in Triton lysis buffer supplemented with protease and phosphatase inhibitors.” left out
as §4

[3] = test system: nitric oxide synthase-3 (NOS-3); assay: NOS-3 expression, Western blot; conditions: PNET2 cells induced to express AD7c-NTP; relative to PDGF-stimulated cultures
Description: as §2, with “methods. […]” for “methods.”

p25 = p25 expression, Western blot / MICE assay; conditions: PNET2 cells induced to express AD7c-NTP
Description: as §2, with “For the immunoprecipitation studies, Western blot analysis of phospho-Erk, pJNK, and p38, and the PI3 kinase assays, the cells were harvested in Triton lysis buffer supplemented with protease and phosphatase inhibitors.” left out
as §4

phospho-Erk MAPK = assay: Growth factor stimulated phospho-Erk MAPK, Western blot; conditions: for phospho-Erk MAPK level, short-term stimulation: 0-30 minutes stimulation; for phospho-Erk MAPK level, 24 hours: 24 hours of AD7c-NTP induction and growth factor stimulation
Description: as §2
(§5) The potential mechanisms by which the differential effects of insulin, IGF1 and PDGF might occur were explored by examining pathways, which mediate PNET2 neuronal apoptosis and neuritic sprouting. […] Western blot analysis was performed with cell lysates obtained from cultures stimulated with insulin, IGF1, or PDGF for 0-30 minutes or 24 hours with equivalent protein loading (60 μg/sample). The membranes were probed using antibodies to Erk, phospho-Erk, Jun, and phospho-JNK. […] In contrast, after 24 hours of AD7c-NTP gene induction and growth factor stimulation, high levels of phospho-Erk MAPK were detected in the IGF-1 and PDGF-stimulated cultures, but not in the serum-starved or insulin-stimulated cultures. […] In contrast, the levels of c-fos transcription factor were equally expressed after 24 hours IPTG induction of AD7c-NTP expression and either serum starvation or stimulation with insulin, IGF1 or PDGF.

phospho-JNK = assay: Growth factor stimulated phospho-JNK, Western blot; conditions: for phospho-JNK level, short-term stimulation: 5-30 min stimulation
Description: as §2, §5

[4] = test system: IRS-1-associated PI3 kinase; assay: IRS-1-associated PI3 kinase activity; conditions: 3 mM IPTG-induced cultures, 30 minutes of stimulation
Method: The cells were harvested in Triton lysis buffer supplemented with protease and phosphatase inhibitors. Total PI3K was immunoprecipitated from 500 μg protein in cell lysates using rabbit polyclonal antibodies to the p85 subunit of PI3K and Protein A sepharose. The immunoprecipitants were incubated for 5 minutes at room temperature with 10 μg of sonicated phosphatidylinositol in HEPES buffer (200 mM HEPES, 4 mM EGTA, 4 mM sodium phosphate, pH 7.0). Reactions were initiated by the addition of 5 μCi [α^32p] ATP, 15 mM MgCl2, 150 mM ATP, 1.5 mM Tris-HCl, pH 7.4, and 15 mM NaCl. […] Phosphorylated lipids were analyzed by thin layer chromatography using gel plates pre-coated with 1% oxalate (Merck, White House Station, N.J.). PI3K activity was measured with a phosphorimager.
PI3 kinase is an important mediator of neuronal survival. […] Since insulin and IGF-1 can activate PI3 kinase through the insulin-receptor substrate-1 (IRS-1) or through IRS-1-independent pathways, both IRS1-associated PI3 kinase and total PI3 kinase activities were measured. […] Levels of PI3 kinase activity were measured in anti-phospho-tyrosine (PY) immunoprecipitates. […] Similarly, PI3 kinase activity was readily detected in the PY immunoprecipitates prepared with cells stimulated with insulin or PDGF.

[5] = test system: PY-PI3 kinase (total PI3 kinase); assay: PI3 kinase activity in anti-phospho-tyrosine (PY) immunoprecipitates
Method: The cells were harvested in Triton lysis buffer supplemented with protease and phosphatase inhibitors. Total PI3K was immunoprecipitated from 500 μg protein in cell lysates using rabbit polyclonal antibodies to the p85 subunit of PI3K and Protein A sepharose. The immunoprecipitants were incubated for 5 minutes at room temperature with 10 μg of sonicated phosphatidylinositol in HEPES buffer (200 mM HEPES, 4 mM EGTA, 4 mM sodium phosphate, pH 7.0). Reactions were initiated by the addition of 5 μCi [α^32p] ATP, 15 mM MgCl2, 150 mM ATP, 1.5 mM Tris-HCl, pH 7.4, and 15 mM NaCl. After 10 minutes incubation at 30° C., the reactions were stopped by the addition of HCl to a final concentration of 1.2 N, followed by chloroform/methanol extraction. Phosphorylated lipids were analyzed by thin layer chromatography using gel plates pre-coated with 1% oxalate (Merck, White House Station, N.J.). PI3K activity was measured with a phosphorimager.
PI3 kinase is an important mediator of neuronal survival. The pro-survival effects of PI3K are mediated through activation of Akt (protein kinase B) and phosphorylation of Bad to render it inactivated. Inhibition of PI3 kinase activity is associated with PNET2 cell apoptosis. Therefore, experiments were carried out to determine if growth factor stimulated PI3 kinase activity was inhibited in insulin or IGF-1-stimulated cultures. Such inhibition has been observed following chronic ethanol exposure. Since insulin and IGF-1 can activate PI3 kinase through the insulin-receptor substrate-1 (IRS-1) or through IRS-1-independent pathways, both IRS1-associated PI3 kinase and total PI3 kinase activities were measured. These studies were conducted using insulin or PDGF stimulated cultures in which AD7c-NTP gene expression was induced by 3 mM IPTG stimulation. […] Levels of PI3 kinase activity were measured in anti-phospho-tyrosine (PY) immunoprecipitates. […] Similarly, PI3 kinase activity was readily detected in the PY immunoprecipitates prepared with cells stimulated with insulin or PDGF.

Row | Substance | cell density (crystal violet) [1] | cell morphology [2] | p53 level (p53) | Bcl-2 level (Bcl-2) | p21/Waf1 level (p21/Waf1) | phospho-tau level (phospho-tau) | NOS-3 level [3] | p25 level (p25) | phospho-Erk MAPK level, short-term stimulation (phospho-Erk MAPK) | phospho-Erk MAPK level, 24 hours (phospho-Erk MAPK) | phospho-JNK level, short-term stimulation (phospho-JNK) | phospho-JNK level, 24 hour time point (phospho-JNK) | IRS-1-associated PI3 kinase activity [4] | PY-PI3 kinase activity, short-term ([5]; 5-30 minutes, PDGF versus insulin-stimulated cultures) | PY-PI3 kinase activity, 24 or 48 hours ([5]; 24 or 48 hours of stimulation)
1 | IGF-1: Recombinant human IGF1 purchased from Sigma | significantly reduced cell densities | two populations of cells | intermediate levels; also recorded: significantly increased levels | intermediate levels; also recorded: reduced levels | significantly increased levels | increased levels | increased levels | significantly increased levels | increased levels | high levels | much lower levels | no detectable phospho-JNK expression |  |  | 
2 | NGF: Recombinant human NGF purchased from Sigma |  | extensive neuritic growth with multipolar fine interconnecting processes and minimal evidence of on-going cell death |  |  |  |  |  |  |  |  |  |  |  |  | 
3 | PDGF |  | extensive neuritic growth with multipolar fine interconnecting processes and minimal evidence of on-going cell death | no detectable p53 | high levels of Bcl-2 |  |  |  |  | minimal effect | high levels | much lower levels | no detectable phospho-JNK expression | virtually undetectable | consistently lower | similar
